Test results reported in patent US20230016551A1, “METHOD FOR ADMINISTRATION OF URSODEOXYCHOLIC ACID” (SHILPA MEDICARE LIMITED, priority 2020, published 2023).
Where “and” joins values, the source holds several entries; their conditions need not be identical. Equal entries are not always repeated.

Experiments:
Format in all cases: in vivo, human
[1] = test system: patients with non-alcoholic fatty liver disease; test: NAFLD patients: liver biopsy histology, histology activity index (HAI) score; design: scale not given here; settings: individual patients 1-4
Source text: A. Histology Examination: Only four patients in each group has accepted to undergo the liver biopsy (LB) before and after the treatment with intravenous UDCA and oral UDCA.

[2] = test system: patients with non-alcoholic fatty liver disease; test: NAFLD patients: liver elastography (stiffness, kPa)
Source text: B. Elastography in Liver: Ultrasound imaging plays a major role in the diagnosis, monitoring and therapeutic decisions of chronic liver diseases. It has many clinical indications: morphological examination of the liver parenchyma and assessment of the risk of chronic liver disease by investigating for signs of dysmorphism and/or portal hypertension; detecting and characterizing liver lesions; monitoring local treatments and assessment of treatment response. Different levels of fibrosis are assessed using a histological score. The most widely used is the METAVIR score, which incorporates five stages of fibrosis: • F0 (no fibrosis), • F1 (portal fibrosis without septa: minimal fibrosis), • F2 (portal fibrosis with a few septa: moderate fibrosis or clinically significant fibrosis), • F3 (septal fibrosis with many septa but no cirrhosis: severe fibrosis) and F4 (cirrhosis). Staging liver fibrosis in patients with chronic liver disease is essential for patient management as it allows: • 1) To identify the severity of the liver damage in order to decide whether or not to start treatment (chronic viral liver disease) to avoid progression to cirrhosis when the fibrosis becomes significant ( ≥F2); • 2) To assess the progression or regression of liver fibrosis during treatment; • 3) To institute specific monitoring to screen for and treat complications (HCC, Esophageal varices) in patients suffering from cirrhosis and even severe fibrosis ( ≥F3). Conventional ultrasound cannot differentiate accurately the different liver fibrosis stages. Existing tools to assess liver fibrosis include liver biopsy (LB), which is invasive, and other non-invasive methods. The main non-invasive method to assess liver fibrosis is based on a physical parameter that measures the tissue elasticity and is called Elastography. It can replace subjective palpation and is intended to image the mechanical properties of tissues and more particularly their stiffness. The Elastography methods are based on a common approach: measurement of deformation induced in a tissue by a force. This technique uses an external mechanical device or an internal acoustic radiation force (ARFI and SWE) to induce shear waves in the tissue to be explored. The diagnostic action mechanism is based on shear wave, which is generated by an external mechanical impulse and whose speed is measured by an ultrasound one-dimensional probe. The one-dimensional probe (3.5 MHz) is mounted along the axis of an electro-dynamic transducer (vibrator). In this way it is possible to define the liver stiffness by measuring the velocity of elastic shear waves in the liver parenchyma generated by the mechanical impulse. The propagation velocity is directly related to the stiffness of the medium, defined by the Young modulus. […] The elasticity is expressed in kPa (kilopascals) and is measured at depth ranging from 25 to 65 mm in a 1 x4 cm area: the assessed liver volume is therefore two hundred times greater than the volume examined in a liver biopsy (LB). The obtained values range from 2.5 kPa to 75 kPa. Mean liver elasticity in “normal” subject is 5.81±1.54 and 5.23±1.59 kPa respectively for men and women.

[3] = test system: patients with non-alcoholic fatty liver disease; test: NAFLD patients: gastrointestinal side effects, oral vs intravenous UDCA
Experimental: (§1) The first group of patients was treated with 50 mg/kg/day UDCA orally for first two months (500 mg capsules swallowed after meals on average of 2-3 capsules after breakfast, 3-4 capsules after lunch and 3-4 capsules after dinner). The second group of patients was treated with intravenous schedule of UDCA at a dose of 3500 mg each other day (every 48 hours) for a total of 24 intravenous sessions. The lab examinations were performed at time T0 (beginning of the study) and time T1 (end of second month treatment). Each patient of the two groups was submitted to standard echo graphic classification as follows: • Grade 0: No fatty liver • Grade 1 (Mild): Mild diffuse increase in the echogenicity of liver parenchyma or increased hepatorenal contrast with normal diaphragm and intrahepatic vessel borders. • Grade 2 (Moderate): Moderate diffuse increase in the echogenicity of liver parenchyma and increased hepatorenal contrast with slight impairment of diaphragm and intrahepatic vessel borders. • Grade 3 (Severe): In addition to moderate steatosis there was no visualization of posterior portion of the right lobe of liver, intrahepatic vessel borders and diaphragm.

[4] = test system: patients with non-alcoholic fatty liver disease; test: NAFLD patients: BMI, liver parameters (GGT, AST, ALT) and liver ultrasound grade, intravenous vs oral UDCA; design: GGT / AST / ALT: unit not given here; settings: n = 50; for Liver Ultrasound - G: echographic fatty liver grade 0-3; for BMI / ALT / AST / GGT: mean±SD
Experimental: as §1, with “Two groups of patients (each group consisting of 50 patients N=50 as disclosed in Table -1) with non-alcoholic fatty liver disease are taken and standardized with the diet of 1300 calories/day (30% proteins, 30% carbohydrates and 40% fat). The first” for “The first”, “and diaphragm. Values were presented as mean± standard deviation for quantitative variable and percentages for categorical variables. The two groups were compared by student’s t-test for quantitative variable and chi-square for the categorical variables. Changes from baseline to 12 weeks were compared by paired t-test within each group. Wilcoxon test was used for rating variable comparison before and after treatment in each group.” for “and diaphragm.”

[5] = test system: patients with biliary colicky pain due to radiolucent gallstones; test: Dissolution of gallbladder transparent stones and colicky pain, intravenous vs oral UDCA; settings: for patients with gall stones dissolution by echographic evaluation: n = 10
Experimental: 20 patients were recruited aged 35 years to 65 years with sudden burst of biliary colicky pain due to radiolucent gallstones, diameter 0.3 to […] and altered liver enzymes. Some patients are also […] complaining of quite an intense pain with nausea and vomiting but without fever, negative inflammation markers (ESR, CRP) and slight leukocytosis, no rebound tenderness at the gallbladder manual exploration. […] were administered with 3500 mg of UDCA every 12 hours for 6 days from the cubital vein; the very first infusion at the admission was added with 20 mg hyoscine-N-butyl bromide and 75 mg diclofenac as the patients are distressed by excruciating pain.

[6] = oral, 50 mg/kg/day for two months
[7] = intravenous, 3500 mg every 48 hours, 24 sessions, T0
[8] = intravenous, 3500 mg every 48 hours, 24 sessions, T1 (end of second month)
[9] = oral, 50 mg/kg/day for two months, T0
[10] = oral, 50 mg/kg/day for two months, T1 (end of second month)
[11] = oral group, 0.7 g/kg oral UDCA for three months

Question: `C[C@H](CCC(=O)O)[C@H]1CC[C@H]2[C@@H]3[C@@H](O)C[C@@H]4C[C@H](O)CC[C@]4(C)[C@H]3CC[C@]12C` [UDCA, ursodeoxycholic acid] was tested. Which “HAI score: Fibrosis” value ([1]; intravenous administration, T0) did it give?
Answer: Its value is 3 (2×) and 4 (2×).

Question: What about the “HAI score: Intralobular” value ([1]; intravenous administration, T0) of the same molecule?
Answer: Its value is 0.

Question: What about the “HAI score: Periportal +/- bridging” value ([1]; intravenous administration, T0) of the same molecule?
Answer: Its value is 3 and 2 and 1 (2×).

Question: What about the “HAI score: Portal inflammation” value ([1]; intravenous administration, T0) of the same molecule?
Answer: The value was 3 (2×) and 2 (2×).

Question: What about the “HAI score: Fibrosis” value ([1]; intravenous administration, T1) of the same molecule?
Answer: Its value is 2 and 1 (3×).

Question: What about the “HAI score: Intralobular” value ([1]; intravenous administration, T1) of the same molecule?
Answer: The value was 0.

Question: And the “HAI score: Periportal +/- bridging” value ([1]; intravenous administration, T1)?
Answer: The value was 1 and 0 (3×).

Question: What about the “HAI score: Portal inflammation” value ([1]; intravenous administration, T1) of the same molecule?
Answer: Its value is 1 and 0 (2×) and 2.

Question: What about the “HAI score: Fibrosis” value ([1]; oral administration, T0) of the same molecule?
Answer: The value was 4 (3×) and 3.

Question: And the “HAI score: Intralobular” value ([1]; oral administration, T0)?
Answer: The value was 0.

Question: What about the “HAI score: Periportal +/- bridging” value ([1]; oral administration, T0) of the same molecule?
Answer: The value was 1 (2×) and 3 and 2.

Question: What about the “HAI score: Portal inflammation” value ([1]; oral administration, T0) of the same molecule?
Answer: Its value is 3 (2×) and 2 (2×).

Question: And the “HAI score: Fibrosis” value ([1]; oral administration, T1)?
Answer: Its value is 3 (2×) and 2 (2×).

Question: And the “HAI score: Intralobular” value ([1]; oral administration, T1)?
Answer: The value was 0.

Question: What about the “HAI score: Periportal +/- bridging” value ([1]; oral administration, T1) of the same molecule?
Answer: The value was 1.

Question: And the “HAI score: Portal inflammation” value ([1]; oral administration, T1)?
Answer: The value was 2 (3×) and 1.

Question: What about the “liver stiffness by elastography (mean ± SD)” value (shortened to “liver stiffness … (mean ± SD)”) ([2]; METAVIR score F ≥3, intravenous administration, T0) of the same molecule?
Answer: Its value is 20.2±5.7 kPa.

Question: What about the “liver stiffness … (mean ± SD)” value ([2]; METAVIR score F ≥3, intravenous administration, T1) of the same molecule?
Answer: Its value is 9.9±5.6 kPa.

Question: What about the “liver stiffness … (mean ± SD)” value ([2]; METAVIR score F ≥3, oral administration, T0) of the same molecule?
Answer: Its value is 19.9±7.1 kPa.

Question: What about the “liver stiffness … (mean ± SD)” value ([2]; METAVIR score F ≥3, oral administration, T1) of the same molecule?
Answer: The value was 12.5±6.9 kPa.

Question: What about the “liver stiffness … (mean ± SD)” value ([2]; METAVIR score F ≥4, intravenous administration, T0) of the same molecule?
Answer: The value was 25.3±6.5 kPa.

Question: What about the “liver stiffness … (mean ± SD)” value ([2]; METAVIR score F ≥4, intravenous administration, T1) of the same molecule?
Answer: The value was 18.5±5.9 kPa.

Question: And the “liver stiffness … (mean ± SD)” value ([2]; METAVIR score F ≥4, oral administration, T0)?
Answer: The value was 23.6±6.8 kPa.

Question: What about the “liver stiffness … (mean ± SD)” value ([2]; METAVIR score F ≥4, oral administration, T1) of the same molecule?
Answer: The value was 19.7±5.8 kPa.

Question: And the “local or systemic side effects during and after administration” value ([3]; intravenous, 3500 mg every 48 hours, 24 sessions)?
Answer: Its value is “No local or systemic side effects were noted”.

Question: What about the tolerability and compliance ([3]; intravenous, compared with the capsules to be swallowed) of the same molecule?
Answer: The tolerability and compliance was “tolerated and preferred in terms of compliance”.

Question: What about the “bloating, share of the patients” value [3, 6] of the same molecule?
Answer: Its value is 20%.

Question: What about the “colicky pain as side effect” value [3, 6] of the same molecule?
Answer: Its value is “moderate colicky pain”.

Question: And the “diarrhoea, share of the patients” value [3, 6]?
Answer: The value was 38%.

Question: What about the “nausea, share of the patients” value [3, 6] of the same molecule?
Answer: Its value is 15%.

Question: And the “reduced appetite, share of the patients” value [3, 6]?
Answer: Its value is 10%.

Question: And the “Liver Ultrasound - G” value [4, 7]?
Answer: The value was 3±2.

Question: And the “Liver Ultrasound - G” value [4, 8]?
Answer: The value was 1±0.

Question: And the “Liver Ultrasound - G” value [4, 9]?
Answer: The value was 3±2.

Question: And the “Liver Ultrasound - G” value [4, 10]?
Answer: The value was 2±1.

Question: And the BMI ([4]; intravenous, 3500 mg every 48 hours, 24 sessions, T0 (beginning of the study))?
Answer: The BMI was 29.06±4.6 kg/m^2.

Question: What about the ALT [4, 7] of the same molecule?
Answer: The ALT was 78.05±5.52.

Question: What about the AST [4, 7] of the same molecule?
Answer: The AST was 65.54±4.56.

Question: What about the GGT [4, 7] of the same molecule?
Answer: Its GGT is 19.52±5.82.

Question: What about the ALT [4, 8] of the same molecule?
Answer: The ALT was 52.6±5.65.

Question: And the AST [4, 8]?
Answer: Its AST is 44.56±5.52.

Question: What about the BMI [4, 8] of the same molecule?
Answer: Its BMI is 26.25±6.2 kg/m^2.

Question: What about the GGT [4, 8] of the same molecule?
Answer: Its GGT is 16.77±7.76.

Question: What about the BMI ([4]; oral, 50 mg/kg/day for two months, T0 (beginning of the study)) of the same molecule?
Answer: Its BMI is 28.18±3.8 kg/m^2.

Question: What about the ALT [4, 9] of the same molecule?
Answer: The ALT was 76.48±4.95.

Question: What about the AST [4, 9] of the same molecule?
Answer: Its AST is 63.25±5.43.

Question: And the GGT [4, 9]?
Answer: Its GGT is 22.7±6.43.

Question: And the ALT [4, 10]?
Answer: The ALT was 74.32±5.58.

Question: And the AST [4, 10]?
Answer: Its AST is 59.43±3.39.

Question: And the BMI [4, 10]?
Answer: The BMI was 27.67±4.2 kg/m^2.

Question: What about the GGT [4, 10] of the same molecule?
Answer: Its GGT is 20.83±7.56.

Question: And the “adverse effects of parenteral treatment” value ([5]; intravenous 3500 mg every 12 hours for 6 days, 20 patients, first week)?
Answer: The value was “no adverse effects”.

Question: And the “patients with gall stones dissolution by echographic evaluation” value ([5]; intravenous group, 3500 mg twice a week for 3 months)?
Answer: The value was 7 patients.

Question: And the “average stones volume reduction” value ([5]; oral UDCA group, the remaining patients)?
Answer: The value was “less than 30%”.

Question: What about the “patients in whom colicky pain reappeared during the first 40 days” value [5, 11] of the same molecule?
Answer: The value was 4 patients out of 10.

Question: What about the “patients with gall stones dissolution by echographic evaluation” value [5, 11] of the same molecule?
Answer: The value was 3 patients.

Question: What about the “reduction of the sludging concretions and overall stones volume compared with pre-treatment imaging” value ([5]; parenteral group, the remaining 3 patients) of the same molecule?
Answer: The value was “more than 50%”.
